Read-outs that look alike come from different tables or passages of the source.
How the values were obtained:
GLP-1R = GLP-1R (Homo sapiens (Human), UniProt P43220); assay: GLP-1R activation: cAMP increase in CHO cells stably expressing GLP-1R; assay type: cell-based; conditions: 10 point dose response, 30 minutes incubation at 37° C.
Procedure: GLP-1R activation by a compound of the present disclosure was quantified by measuring cAMP increase in CHO cells stably expressing GLP-1R (MultiSpan product #C1267-1a). […] The cells were then incubated overnight at 37° C., 5% CO2. […] 1% BSA (Rockland Immunochemicals product #BSA-1000)). Following the medium change, the cells were incubated for 1 hour at 37° C., 5% CO2. The tested GLP-1 compound was added to the cells in a 10 point dose response followed by a 30 minutes incubation at 37° C., 5% CO2. cAMP concentration increase was then detected using Cisbio's cAMP Gs Dynamic Kit (product #62AM4PEC) according to the manufacturer's protocol. The response was plotted against the log of the agonist concentration and fitted to a sigmoidal equation to determine the EC50.

[1] = Microsomal stability (liver microsomal assay, mixed cofactors); predicted hepatic clearance; assay type: in vitro ADME; conditions: liver microsomes 1.0 mg protein/mL (+UDPGA +NADPH), 1 μM analyte, 37° C.; scaled with human liver weight and hepatic blood flow 1.3 L/hr/kg
Procedure: Metabolic stability of compounds was assessed using human or rat liver microsomal assays (Corning). In these assays, 10 nL of each analyte at a concentration of 1 mM in 100% DMSO was dispensed into a well of a polypropylene plates using the Echo 550 acoustic liquid dispenser (Labcyte®). Each plate contained 384 wells with a single analyte in each well.
A solution of human (Corning® Gentest™ Human Mixed Pooled Microsomes or rat (Corning® Gentest™ Rat [Sprague-Dawley] Pooled Liver Microsomes) liver microsomes at 2 mg/ml in 100 mM K2HPO4/KH2PO4 at pH 7. 4 was combined with alamethicin from Trichoderma viride (Sigma-Aldrich) 0.0225 mg/ml. The mixture was incubated on ice for 15 minutes. 5 μL of this mixture was added to individual wells following a 15 minute incubation at room temperature and supplemented with 5 μL NADPH Regenerating Solution of cofactors (Corning® Gentest™ UGT Reaction Mix) containing 100 mM K2HPO4/KH2PO4 at pH 7.4, 2.6 mM NADP+, 6.6 mM glucose-6-phosphate, 6.6 mM MgCl2, 0.8 U/mL glucose-6-phosphate dehydrogenase, 0.1 mM sodium citrate, and 6.8 mM uridine diphosphate-glucuronic acid. The final concentration of each analyte compound at the beginning of the reaction was 1 μM. The reactions were incubated at 37° C. and samples were collected at time points of 0, 5, 15, 30, 40, 50, 60, and 70 minutes for further analysis. Background data were collected using reactions without analyte compounds.
Upon collection of the sample time points, samples were quenched with 30 μL of a solution of 72% acetonitrile, 8% methanol, 0.1% formic acid, 19.9% water, and internal standard (IS). Reaction plates were spun in a centrifuge at speed of 4,000 rcf for 30 minutes at 4° C., following a dilution of the 10 μL quenched reaction into 40 μL de-ionized water, yielding assay plates.
Assay plates were analyzed using solid-state extraction coupled with quadrupole time-of-flight mass spectrometer, using Agilent QToF 6530 RapidFire 360 system, with C4 type A solid state cartridges. Analysis was performed in either positive or negative ionization modes. Mobile phases contained 0.1% formic acid in water for loading analytes onto solid state extraction cartridges and 0.1% formic acid in acetonitrile for elution into a mass spectrometer in positive ionization mode, or 0.1% acetic acid in water for loading and 0.1% acetic acid in acetonitrile for extraction in negative ionization mode. Peak-area ratios of integrated counts for individual compounds to IS were plotted as semi-logarithmic chart of log vs time. The initial linear portion of decay was fitted to a linear regression equation to derive the half-time of analyte decay.
Pharmacological parameters for an analyte compound metabolism were calculated using the following equations: […]
wherein concentration refers to the protein concentration (mg/ml) in the reaction.
This scales the in vitro intrinsic clearance up to the value that would be predicted for the entire mass of liver tissue (but with no restriction by blood flow). The value depends upon the size of the liver (species-dependent) and the yield of microsomal protein as appropriate (assumed to be species-independent).
Hepatic clearance will depend upon the inter-relationship of intrinsic clearance and hepatic blood flow and was predicted from in vitro data using a variety of approaches.
The hepatic extraction is reported as the predicted clearance expressed as a proportion of hepatic blood flow.

Sequence of GLP-1R (P43220 24-463): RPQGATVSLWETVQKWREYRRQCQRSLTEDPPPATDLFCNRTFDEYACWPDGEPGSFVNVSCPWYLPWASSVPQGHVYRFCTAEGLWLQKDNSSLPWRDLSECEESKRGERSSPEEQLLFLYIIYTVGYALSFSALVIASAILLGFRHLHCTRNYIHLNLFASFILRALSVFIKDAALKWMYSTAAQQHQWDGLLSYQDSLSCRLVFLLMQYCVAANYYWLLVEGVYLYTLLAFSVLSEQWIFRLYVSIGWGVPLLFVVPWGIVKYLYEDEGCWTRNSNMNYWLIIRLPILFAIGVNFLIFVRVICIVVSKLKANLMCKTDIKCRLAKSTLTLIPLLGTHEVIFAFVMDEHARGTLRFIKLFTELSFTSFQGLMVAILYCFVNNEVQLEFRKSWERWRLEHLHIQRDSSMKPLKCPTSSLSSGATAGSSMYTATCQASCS

Structure (SMILES) | EC50 (GLP-1R; cAMP increase, read-out: EC50) | Predicted Hepatic Clearance (Pred. Cl.) [1] | EC50 (GLP-1R; EC50, cAMP increase)
COCCn1c(Cc2ccc(-c3cccc4c3OC(c3ccccc3)O4)cc2F)nc2ccc(C(=O)O)cc21 (single isomer, unassigned) [Example 36, 2-(2-fluoro-4-(2-phenylbenzo[d][1, 3]dioxol-4-yl)benzyl)-1-(2-methoxyethyl)-1H-benzo[d]imidazole-6-carboxylic acid] | 242 nM | 8.67 mL/min/kg | 
COCCn1c(Cc2c(F)cc(-c3cccc4c3OC(c3ccc(C#N)cc3F)O4)cc2F)nc2ccc(C(=O)O)cc21 (single isomer, unassigned) [Example 37, 2-(4-(2-(4-cyano-2-fluorophenyl)benzo [d][1,3]dioxol-4-yl)-2,6-difluorobenzyl)-1-(2-methoxyethyl)-1H-benzo[d]imidazole-6-carboxylic acid] | 1000 nM | 3.83 mL/min/kg | 
COCCn1c(Cc2c(F)cc(-c3cccc4c3OC(c3ccc(C#N)cc3F)O4)cc2F)nc2ccc(C(=O)O)cc21 (single isomer, unassigned) [Example 38, 2-(4-(2-(4-cyano-2-fluorophenyl)benzo [d][1,3]dioxol-4-yl)-2,6-difluorobenzyl)-1-(2-methoxyethyl)-1H-benzo[d]imidazole-6-carboxylic acid] | 37 nM | 4 mL/min/kg | 
COCCn1c(Cc2cc(F)c(-c3cccc4c3OC(c3ccc(C#N)cc3F)O4)cc2F)nc2ccc(C(=O)O)cc21 (single isomer, unassigned) [Example 39, 2-(4-(2-(4-cyano-2-fluorophenyl)benzo [d][1,3]dioxol-4-yl)-2,5-difluorobenzyl)-1-(2-methoxyethyl)-1H-benzo[d]imidazole-6-carboxylic acid] | 49 nM | 3.17 mL/min/kg | 
COCCn1c(Cc2cc(F)c(-c3cccc4c3OC(c3ccc(C#N)cc3F)O4)cc2F)nc2ccc(C(=O)O)cc21 (single isomer, unassigned) [Example 40, 2-(4-(2-(4-cyano-2-fluorophenyl)benzo [d][1,3]dioxol-4-yl)-2,5-difluorobenzyl)-1-(2-methoxyethyl)-1H-benzo[d]imidazole-6-carboxylic acid] | 1230 nM | 5 mL/min/kg | 
N#Cc1ccc(C2Oc3cccc(-c4cc(F)c(Cc5nc6ccc(C(=O)O)cc6n5C[C@@H]5CCO5)c(F)c4)c3O2)c(F)c1 (single isomer, unassigned) [Example 41] | 438 nM | 2.83 mL/min/kg | 
N#Cc1ccc(C2Oc3cccc(-c4cc(F)c(Cc5nc6ccc(C(=O)O)cc6n5C[C@@H]5CCO5)c(F)c4)c3O2)c(F)c1 (single isomer, unassigned) [Example 42] | 1.1 nM | 3.83 mL/min/kg | 
CC1(c2ccc(Cl)cc2F)Oc2cccc(-c3cc(F)c(Cc4nc5ccc(C(=O)O)cc5n4C[C@@H]4CCO4)cc3F)c2O1 (single isomer, unassigned) [Example 43] | 7.4 nM | 4.67 mL/min/kg | 
CC1(c2ccc(Cl)cc2F)Oc2cccc(-c3cc(F)c(Cc4nc5ccc(C(=O)O)cc5n4C[C@@H]4CCO4)cc3F)c2O1 (single isomer, unassigned) [Example 44] | 0.033 nM | 4.83 mL/min/kg | 
CC1(c2ccc(Cl)cn2)Oc2cccc(-c3cc(F)c(Cc4nc5ccc(C(=O)O)cc5n4C[C@@H]4CCO4)cc3F)c2O1 (single isomer, unassigned) [Example 45] | 0.19 nM | 5 mL/min/kg | 
CC1(c2ccc(Cl)cn2)Oc2cccc(-c3cc(F)c(Cc4nc5ccc(C(=O)O)cc5n4C[C@@H]4CCO4)cc3F)c2O1 (single isomer, unassigned) [Example 46] | 17 nM | 4.33 mL/min/kg | 
CC1(c2ccc(Cl)cc2F)Oc2cccc(-c3cc(F)c(Cc4nc5ccc(C(=O)O)cc5n4C[C@@H]4CCO4)c(F)c3)c2O1 (single isomer, unassigned) [Example 47] |  | 3.17 mL/min/kg | 0.07 nM
CC1(c2ccc(Cl)cc2F)Oc2cccc(-c3cc(F)c(Cc4nc5ccc(C(=O)O)cc5n4C[C@@H]4CCO4)c(F)c3)c2O1 (single isomer, unassigned) [Example 48] |  | 2 mL/min/kg | 1.2 nM
CC1(c2ccc(Cl)cn2)Oc2cccc(-c3cc(F)c(Cc4nc5ccc(C(=O)O)cc5n4C[C@@H]4CCO4)c(F)c3)c2O1 (single isomer, unassigned) [Example 49] | 0.31 nM | 3.33 mL/min/kg | 
CC1(c2ccc(Cl)cn2)Oc2cccc(-c3cc(F)c(Cc4nc5ccc(C(=O)O)cc5n4C[C@@H]4CCO4)c(F)c3)c2O1 (single isomer, unassigned) [Example 50] | 16 nM | 3.17 mL/min/kg | 
CC1(c2ccc(C#N)cc2F)Oc2cccc(-c3cc(F)c(Cc4nc5ccc(C(=O)O)cc5n4C[C@@H]4CCO4)c(F)c3)c2O1 (single isomer, unassigned) [Example 92] | 3.3 nM | 2.67 mL/min/kg | 
CC1(c2ccc(C#N)cc2F)Oc2cccc(-c3cc(F)c(Cc4nc5ccc(C(=O)O)cc5n4C[C@@H]4CCO4)c(F)c3)c2O1 (single isomer, unassigned) [Example 93] | 0.52 nM | 6 mL/min/kg | 
CC1(c2ccc(C#N)cc2F)Oc2cccc(-c3cc(F)c(Cc4nc5ccc(C(=O)O)cc5n4C[C@@H]4CCO4)c(F)c3F)c2O1 (single isomer, unassigned) [Example 94] | 0.32 nM | 7 mL/min/kg | 
CC1(c2ccc(C#N)cc2F)Oc2cccc(-c3cc(F)c(Cc4nc5ccc(C(=O)O)cc5n4C[C@@H]4CCO4)c(F)c3F)c2O1 (single isomer, unassigned) [Example 95] | 21 nM | 2.83 mL/min/kg | 
COCCn1c(Cc2c(F)cc(-c3cccc4c3OC(C)(c3ccc(C#N)cc3F)O4)c(F)c2F)nc2ccc(C(=O)O)cc21 (single isomer, unassigned) [Example 96, 2-(4-(2-(4-cyano-2-fluorophenyl)-2-methylbenzo[d][1, 3]dioxol-4-yl)-2,3,6-trifluorobenzyl)-1-(2-methoxyethyl)-1H-benzo[d]imidazole-6-carboxylic acid] | 57 nM | 3.5 mL/min/kg | 
COCCn1c(Cc2c(F)cc(-c3cccc4c3OC(C)(c3ccc(C#N)cc3F)O4)c(F)c2F)nc2ccc(C(=O)O)cc21 (single isomer, unassigned) [Example 97, 2-(4-(2-(4-cyano-2-fluorophenyl)-2-methylbenzo[d][1, 3]dioxol-4-yl)-2,3,6-trifluorobenzyl)-1-(2-methoxyethyl)-1H-benzo[d]imidazole-6-carboxylic acid] | 1.9 nM | 15.2 mL/min/kg | 
COCCn1c(Cc2c(F)cc(-c3cccc4c3OC(C)(c3ccc(C#N)cc3F)O4)cc2F)nc2ccc(C(=O)O)cc21 (single isomer, unassigned) [Example 98, 2-(4-(2-(4-cyano-2-fluorophenyl)-2-methylbenzo[d][1, 3]dioxol-4-yl)-2,6-difluorobenzyl)-1-(2-methoxyethyl)-1H-benzo[d]imidazole-6-carboxylic acid] | 67 nM | 3.5 mL/min/kg | 
